Laboratory results from patent US20260000754A1, “NANOPARTICLES AS CARRIER-SYSTEM FOR ADJUVANTS/ANTIGENS” (UNIVERSITAT HEIDELBERG, priority 2020, published 2026).

How the values were obtained:
DC2.4 cells = assay: MHC I cross presentation of OVA257-264 in DC2.4 cells; type: cell-based, murine; details: 6 h incubation with 5 μM solution, with or without SiO2—PO3H2; 25-D1.16 antibody, flow cytometry
Method: In the experiment, the OVA257-264 presentation efficacy after incubation of 5·10^4 DC2.4 cells with 5 μM solutions of full length protein (OVA=Ovalbumin), N- and C-terminal elongated epitope (OVA247-264A5K, a so called synthetic long peptide (SLP)), N-terminal elongated epitope with a Cathepsin B cleavable sequence (exemplary shown RW-Cit-OVA257-264) or native epitope (OVA 257-264), each with and without nanoparticles, was compared. […] After an incubation time of 6 h, the test substances are removed by washing with phosphate-buffered saline (PBS). In the next step, the cells were incubated with CD16/CD32 antibody in order to block the non-specific binding of the detection antibody to the Fc (Fragment, crystallizable) receptor of the cells. After incubation with 25-D1.16 antibody, the amount of cross-presented OVA257-264 was quantified by flow cytometry.
FIG. 16: OVA257-264 MHC I presentation after 6 h incubation of H2-Kb positive cells with 5 μM solution of native or elongated OVA257-264 epitope or full length OVA protein with or without SiO2—PO3H2. Quantification was carried out by flow cytometry after labeling with 25-D1.16 detection antibody.

[1] = Solubility enhancement of epitopes (solubility in water); type: physicochemical
Text: On the N-terminal site of the enzymatically cleaved linker the addition of polar amino acids can be used to enhance the solubility of the whole peptide. […] The use in a human vaccine is difficult. In animal studies researchers dissolve it in DMSO. The solubility after e.g. subcutaneous injection is questionable: dilution might result in precipitation of large peptide particles, which is very unfavorable for transport to lymphnodes.
According to the invention the epitope […] was enlarged on the N-terminal site with the enzymatic cleavable linker Val-Cit and the cationic solubilizing sequence Lys-Lys-Lys, leading to • KKKV-Cit-[…].
After endosomal and/or cytosolic cleavage by cathepsin B the native HPV 16 E782-90 is released. Also the remaining KKKV-Cit is not immunogenic, due to the fact it's too short to be presented at any MHC I or MHC II.

[2] = Stability measurement in human serum (HEK-Blue hTLR3 cell readout); type: in vitro ADME; details: 20% human serum, 37° C., 1 μg poly(I:C)/mL
[3] = Stability measurement in bovine serum (HEK-Blue hTLR3 cell readout); type: in vitro ADME; details: 60 minutes at 37° C., 5, 10 and 20% FBS
Text: HEK-Blue™ hTLR3 Cells are designed to measure the stimulation of […] monitoring the activation of NF-kB. HEK-Blue™hTLR3Cells were obtained by co-transfection of the hTLR3 gene and an optimized secreted embryonic alkaline phosphatase (SEAP) reporter gene placed under the control of an NF-kB and AP-1-inducible promoter intoHEK293 cells. Stimulation with a TLR3 ligand activates NF-kB and AP-1 which induce the production of SEAP. Levels of SEAP can be easily determined with HEK-Blue™ Detection, a cell culture medium that allows for real-time detection of SEAP. The hydrolysis of the substrate by SEAP produces a purple/blue color that can be easily detected with the naked eye or measured with a 96 well plate reader (Invivogen).
The serum was used in concentrations of 5, 10 and 20%. A serum concentration of 20% corresponds quite well to the composition of peripheral lymph.
The poly(I:C) payload at SiO2—Arg in this case was about 2.5%. After exposure to FBS 20 μL of the medium were taken and added to 180 μL HEK-Blue™ hTLR3 cells in HEK-Blue™ Detection medium. This mixture was incubated for 13 hours at 37° C. and the plate was analyzed in a 96 well plate reader (Tecan Reader, Type: Infinite M200 Pro).

| Molecule | OVA257-264 MHC I presentation (DC2.4 cells) | solubility in water [1] | other results |
| --- | --- | --- | --- |
| SIINFEKL [OVA257-264] | presented in significant amounts | – | – |
| CC[C@H](C)[C@H](NC(=O)CNC(=O)[C@H](CC(C)C)NC(=O)[C@@H](NC(=O)CNC(=O)[C@H](CCSC)NC(=O)[C@H](CC(C)C)NC(=O)[C@@H](N)CC(C)C)[C@@H](C)O)C(=O)N[C@H](C(=O)O)C(C)C | – | very bad | – |
| polyinosinic: polycytidylic acid [poly(I:C)] | – | – | % of initial concentration after 60 minutes [2]: 18%; calculated half-life [2]: 24.2 min; stability in fetal bovine serum [3]: clear signs of degradation at higher serum concentrations |
| CC[C@H](C)[C@H](NC(=O)CNC(=O)[C@H](CC(C)C)NC(=O)[C@@H](NC(=O)CNC(=O)[C@H](CCSC)NC(=O)[C@H](CC(C)C)NC(=O)[C@H](CC(C)C)NC(=O)[C@H](CCCNC(N)=O)NC(=O)[C@@H](NC(=O)[C@H](CCCCN)NC(=O)[C@H](CCCCN)NC(=O)[C@@H](N)CCCCN)C(C)C)[C@@H](C)O)C(=O)N[C@H](C(=O)O)C(C)C | – | excellent | – |
| RW-Cit-OVA257-264 | presented in significant amounts | – | – |
